Reference: US20140155415A1, “BENZ[…] BENZODIOXINE COMPOUNDS THAT INTERACT WITH G[…] FOR THE TREATMENT OF DIABETES” (priority 2011, published 2014)

Key:
[1] = target: T1, GK-GKRP (glucokinase / glucokinase regulatory protein) (Homo sapiens, UniProt Q14397); test: GKRP LC MS/MS Biochemical Assay (LCMS/MS); conditions: formation of 13C-glucose-6-phosphate from 13C-glucose by LC MS/MS, human His-hepatic GK, fructose-6-phosphate
T1 sequence (Q14397 1-625): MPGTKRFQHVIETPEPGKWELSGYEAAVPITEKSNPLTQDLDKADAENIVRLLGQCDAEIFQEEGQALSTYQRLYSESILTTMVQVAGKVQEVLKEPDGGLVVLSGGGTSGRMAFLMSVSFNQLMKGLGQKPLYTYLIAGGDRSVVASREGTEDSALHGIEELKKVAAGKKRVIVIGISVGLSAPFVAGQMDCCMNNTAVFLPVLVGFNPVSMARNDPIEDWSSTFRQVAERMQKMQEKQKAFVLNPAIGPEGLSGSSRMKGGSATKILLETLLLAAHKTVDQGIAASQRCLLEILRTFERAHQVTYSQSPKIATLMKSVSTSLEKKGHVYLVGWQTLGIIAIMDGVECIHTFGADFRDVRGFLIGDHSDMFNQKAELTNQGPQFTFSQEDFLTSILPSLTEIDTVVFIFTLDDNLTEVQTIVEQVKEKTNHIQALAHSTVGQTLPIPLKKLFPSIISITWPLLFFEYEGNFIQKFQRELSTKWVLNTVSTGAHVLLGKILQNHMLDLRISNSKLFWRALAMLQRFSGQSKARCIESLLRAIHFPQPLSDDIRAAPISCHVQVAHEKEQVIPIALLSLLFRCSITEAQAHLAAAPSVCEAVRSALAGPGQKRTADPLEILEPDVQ
Summary of the method: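 Human His-tagged hepatic GK (30 nM working stock, 5×) with GKRP in 50 mM Tris pH 7.5, 4 mM MgCl2, 6% DMSO; compound preincubated 30 min, then GK added for 30 min at room temperature. Acetonitrile-stopped; 13C-glucose-6-phosphate formed from 13C-glucose quantified by LC MS/MS.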

[2] = target: T2, GK-GKRP (interaction between glucokinase and glucokinase regulatory protein) (Homo sapiens, UniProt Q14397); test: GK-GKRP Binding Assay (Binding), AlphaScreen; conditions: avi-tagged GKRP, GK-fluorescein, AlphaScreen beads, 1 μM sorbitol-6-phosphate; read-out: GK-GKRP IC50 (Binding)
T2 construct: made in house; host or cells: GKRP: baculovirus system
T2 sequence (Q14397 1-625): T1 sequence (Q14397 1-625)
Summary of the method: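 Biotinylated, C-terminally avi-tagged human GKRP was preincubated 20 min at room temperature with compound, then fluorescein-labelled human hepatic GK was added (6 nM in the added buffer). The mix was incubated 2 h at room temperature in the dark before AlphaScreen reading. Buffer was 20 mM Tris pH 7.5, 0.05% BSA, 1 mM DTT, 1 μM sorbitol-6-phosphate.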

EC50 [1] [µM] | IC50 [2] [µM] | Structure (SMILES)
1.2 | 1.4 | Cc1ccsc1C(NS(=O)(=O)c1ccc2c(c1)OCCCO2)c1cc2ccccc2o1 (racemic) [Example 33, N-(1-benzofuran-2-yl(3-methyl-2-thiophenyl)methyl)-3,4-dihydro-2H-1,5-benzodioxepine-7-sulfonamide]
> 20 | 4 | Cc1ccccc1[C@H](NS(=O)(=O)c1ccc2c(c1)OCCCO2)c1cc2ccccc2s1 (single isomer, unassigned) [Example 36 Peak #1]
0.03 | 0.078 | O=S(=O)(N[C@@H](c1cc2ccccc2o1)c1ccccc1Cl)c1ccc2c(c1)OCCCO2 (single isomer, unassigned) [Example 20 Peak #2]
> 20 | 4.5 | O=S(=O)(N[C@H](c1cc2ccccc2o1)c1ccccc1Br)c1ccc2c(c1)OCCCO2 (single isomer, unassigned) [Example 22 Peak #1]
0.11 | 0.31 | O=S(=O)(NC(c1ccccc1)c1cc2ccccc2s1)c1ccc2c(c1)OCCCO2 (racemic) [Example 57, N-(1-benzothiophen-2-yl(phenyl)methyl)-3,4-dihydro-2H-1,5-benzodioxepine-7-sulfonamide]
0.087 | 1.9 | O=S(=O)(N[C@H](c1ccccc1)c1cc2ccccc2s1)c1ccc2c(c1)OCCCO2 (single isomer, unassigned) [Example 57 Peak #2]
0.026 | 0.021 | C[C@](O)(c1ccnc(-c2cccc3cc([C@@H](NS(=O)(=O)c4ccc5c(c4)OCCCO5)c4ccccc4)sc23)c1)C(F)(F)F (racemic) [Example 70, N-(phenyl(7-(4-(2,2,2-trifluoro-1-hydroxy-1-methylethyl)-2-pyridinyl)-1-benzothiophen-2-yl)methyl)-3,4-dihydro-2H-1,5-benzodioxepine-7-sulfonamide]
0.2 | 0.79 | COc1ccc2sc(C(NS(=O)(=O)c3ccc4c(c3)OCCCO4)c3ccccc3)cc2c1 (racemic) [Example 58, N-((5-methoxy-1-benzothiophen-2-yl)(phenyl)methyl)-3,4-dihydro-2H-1,5-benzodioxepine-7-sulfonamide]
6 | 3.8 | O=S(=O)(N[C@@H](c1ccccn1)c1cc2ccccc2o1)c1ccc2c(c1)OCCCO2 (single isomer, unassigned) [Example 25 Peak #1]
0.34 | 0.95 | CSc1ccccc1C(NS(=O)(=O)c1ccc2c(c1)OCCO2)c1cc2ccccc2s1 (racemic) [Example 75, N-(1-benzothiophen-2-yl(2-(methylsulfanyl)phenyl)methyl)-2,3-dihydro-1,4-benzodioxine-6-sulfonamide]
> 20 | 1.3 | CCc1ccccc1[C@H](NS(=O)(=O)c1ccc2c(c1)OCCCO2)c1cc2ccccc2s1 (single isomer, unassigned) [Example 37 Peak #1]
0.29 | 0.54 | O=S(=O)(NC(c1ccccc1)c1cc2cccc(-c3ccccn3)c2s1)c1ccc2c(c1)OCCCO2 (racemic) [Example 71, N-(phenyl(7-(2-pyridinyl)-1-benzothiophen-2-yl)methyl)-3,4-dihydro-2H-1,5-benzodioxepine-7-sulfonamide]
3.8 | 4.1 | Cc1cccc(C)c1C(NS(=O)(=O)c1ccc2c(c1)OCCCO2)c1cc2ccccc2o1 (racemic) [Example 10, N-(1-benzofuran-2-yl(2,6-dimethylphenyl)methyl)-3,4-dihydro-2H-1,5-benzodioxepine-7-sulfonamide]
0.29 | 0.21 | O=S(=O)(N[C@H](c1ccccn1)c1cc2ccccc2o1)c1ccc2c(c1)OCCCO2 (single isomer, unassigned) [Example 25 Peak #2]
0.29 | 0.97 | CSc1ccccc1[C@H](NS(=O)(=O)c1ccc2c(c1)OCCCO2)c1cc2ccccc2o1 (single isomer, unassigned) [Example 19 Peak #1]
0.15 | 0.31 | COc1cccnc1C(NS(=O)(=O)c1ccc2c(c1)OCCCO2)c1cc2ccccc2o1 (racemic) [Example 30, N-(1-benzofuran-2-yl(3-methoxy-2-pyridinyl)methyl)-3,4-dihydro-2H-1,5-benzodioxepine-7-sulfonamide]
0.28 | 1.1 | CC(C)c1ccccc1C(NS(=O)(=O)c1ccc2c(c1)OCCCO2)c1cc2ccccc2o1 (racemic) [Example 9, N-(1-benzofuran-2-yl(2-(1-methylethyl)phenyl)methyl)-3,4-dihydro-2H-1,5-benzodioxepine-7-sulfonamide]
0.068 | 0.042 | COc1ccccc1C(NS(=O)(=O)c1ccc2c(c1)OCCCO2)c1nc2ccccc2s1 (racemic) [Example 51, N-(1,3-benzothiazol-2-yl(2-methoxyphenyl)methyl)-3,4-dihydro-2H-1,5-benzodioxepine-7-sulfonamide]
0.57 | 0.36 | O=S(=O)(NC(c1ccccc1)c1cc2ccncc2s1)c1ccc2c(c1)OCCCO2 (racemic) [Example 60, N-(phenyl(thieno[2,3-c]pyridin-2-yl)methyl)-3,4-dihydro-2H-1,5-benzodioxepine-7-sulfonamide]
0.19 | 0.42 | Cc1cccnc1C(NS(=O)(=O)c1ccc2c(c1)OCCCO2)c1cc2ccccc2o1 (racemic) [Example 26, N-(1-benzofuran-2-yl(3-methyl-2-pyridinyl)methyl)-3,4-dihydro-2H-1,5-benzodioxepine-7-sulfonamide]
0.16 | 0.3 | CCc1ccccc1C(NS(=O)(=O)c1ccc2c(c1)OCCCO2)c1cc2ccccc2s1 (racemic) [Example 37, N-(1-benzothiophen-2-yl(2-ethylphenyl)methyl)-3,4-dihydro-2H-1,5-benzodioxepine-7-sulfonamide]
0.04 | 0.11 | CCc1ccccc1[C@@H](NS(=O)(=O)c1ccc2c(c1)OCCCO2)c1cc2ccccc2o1 (single isomer, unassigned) [Example 6 Peak #2]
0.72 | 1.4 | O=S(=O)(NC(c1ccccc1)c1ccc2ccccc2n1)c1ccc2c(c1)OCCCO2 (racemic) [Example 56, N-(phenyl(2-quinolinyl)methyl)-3,4-dihydro-2H-1,5-benzodioxepine-7-sulfonamide]
0.082 | 0.072 | COc1ccccc1C(NS(=O)(=O)c1ccc2c(c1)OCCCO2)c1cc2ccncc2s1 (racemic) [Example 66, N-((2-methoxyphenyl)(thieno[2,3-c]pyridin-2-yl)methyl)-3,4-dihydro-2H-1,5-benzodioxepine-7-sulfonamide]
0.059 | 0.027 | COc1ccccc1C(NS(=O)(=O)c1ccc2c(c1)OCCCO2)c1cc2cccnc2s1 (racemic) [Example 47, N-((2-methoxyphenyl)(thieno[2,3-b]pyridin-2-yl)methyl)-3,4-dihydro-2H-1,5-benzodioxepine-7-sulfonamide]
0.029 | 0.006 | CSc1ccccc1C(NS(=O)(=O)c1ccc2c(c1)OCCCO2)c1nc2ccccc2s1 (racemic) [Example 52, N-(1,3-benzothiazol-2-yl(2-(methylsulfanyl)phenyl)methyl)-3,4-dihydro-2H-1,5-benzodioxepine-7-sulfonamide]
